Molecular target: High affinity nerve growth factor receptor (Homo sapiens, UniProt P04629)
Experiment: Inhibition of wild type […] (unknown origin) incubated for 30 mins by caliper mobility shift assay

Sequence of High affinity nerve growth factor receptor (P04629 whole entry): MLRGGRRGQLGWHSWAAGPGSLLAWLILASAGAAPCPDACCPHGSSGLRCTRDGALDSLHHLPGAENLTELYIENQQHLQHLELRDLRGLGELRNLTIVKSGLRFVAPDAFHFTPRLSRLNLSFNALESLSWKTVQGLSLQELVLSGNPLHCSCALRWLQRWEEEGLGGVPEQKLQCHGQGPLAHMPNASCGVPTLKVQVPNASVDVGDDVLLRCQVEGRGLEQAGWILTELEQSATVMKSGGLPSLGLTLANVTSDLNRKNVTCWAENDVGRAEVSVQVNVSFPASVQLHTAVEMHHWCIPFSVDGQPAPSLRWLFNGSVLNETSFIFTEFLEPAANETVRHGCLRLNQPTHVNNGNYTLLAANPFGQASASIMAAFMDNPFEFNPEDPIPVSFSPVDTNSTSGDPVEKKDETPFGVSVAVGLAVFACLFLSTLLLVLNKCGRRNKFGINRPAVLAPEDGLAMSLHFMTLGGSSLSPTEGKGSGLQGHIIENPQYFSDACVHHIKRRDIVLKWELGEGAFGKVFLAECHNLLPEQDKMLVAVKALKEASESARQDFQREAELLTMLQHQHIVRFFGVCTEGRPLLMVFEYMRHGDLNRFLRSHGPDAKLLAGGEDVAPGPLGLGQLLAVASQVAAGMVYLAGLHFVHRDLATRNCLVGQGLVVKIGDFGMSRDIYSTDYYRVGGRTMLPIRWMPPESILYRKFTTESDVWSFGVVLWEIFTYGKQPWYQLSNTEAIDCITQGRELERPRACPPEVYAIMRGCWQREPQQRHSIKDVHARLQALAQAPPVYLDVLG

**Q.** `O=C(NC1CCOCC1)c1cnn2ccc(NCc3cccc(F)c3)nc12` was tested. Which IC50 did it give?
**A.** 3.6 nM

**Q.** Which IC50 does the source give for `O=C(N[C@H]1CC[C@H](O)CC1)c1cnn2ccc(NCc3cccc(F)c3)nc12` here?
**A.** 1.6 nM

**Q.** `CO[C@H]1CC[C@H](NC(=O)c2cnn3ccc(NCc4cccc(F)c4)nc23)CC1` was tested. Which IC50 did it give?
**A.** 1.5 nM

**Q.** Which IC50 does the source give for `CC(Nc1ccn2ncc(C(=O)NC3CCOCC3)c2n1)c1cccc(F)c1` (stereo unspecified) here?
**A.** 2.1 nM

**Q.** With `CC(Nc1ccn2ncc(C(=O)N[C@H]3CC[C@H](O)CC3)c2n1)c1cccc(F)c1` (stereo partly specified) as the molecule, how does the IC50 read?
**A.** 3 nM

**Q.** How did the IC50 turn out when `CN(Cc1cccc(F)c1)c1ccn2ncc(C(=O)NC3CCOCC3)c2n1` was run?
**A.** 3.2 nM

**Q.** `CN(Cc1cccc(F)c1)c1ccn2ncc(C(=O)N[C@H]3CC[C@H](O)CC3)c2n1` was tested. Which IC50 did it give?
**A.** 1.3 nM

**Q.** For `CO[C@H]1CC[C@H](NC(=O)c2cnn3ccc(N(C)Cc4cccc(F)c4)nc23)CC1`, which IC50 is on record?
**A.** 1.1 nM

**Q.** With `O=C(NC1CCOCC1)c1cnc2ccc(NCc3cccc(F)c3)nn12` as the molecule, how does the IC50 read?
**A.** 8.4 nM

**Q.** With `O=C(N[C@H]1CC[C@H](O)CC1)c1cnc2ccc(NCc3cccc(F)c3)nn12` as the molecule, how does the IC50 read?
**A.** 2.8 nM

**Q.** Which IC50 does the source give for `CO[C@H]1CC[C@H](NC(=O)c2cnc3ccc(NCc4cccc(F)c4)nn23)CC1` here?
**A.** 3 nM

Source: BindingDB's records for doi:10.1021/jf050110v (China Pharmaceutical University, 2020)
